{"source": "paper PMC6177136", "about": "“Hybrid topoisomerase I and HDAC inhibitors as dual action anticancer agents” (PLoS ONE, 2018)", "format_in_all_cases": "cell-based, Human", "key": {"KM-H2": {"test_system": "KM-H2", "experiment": "Cytotoxicity assay (MTT, 72 h) KM-H2", "details": "72 h, MTT assay; read-out: IC50 ± SD KM-H2"}, "HT29": {"test_system": "HT29", "experiment": "Cytotoxicity assay (SRB, 72 h) HT29", "details": "read-out: IC50 ± SD HT29"}, "NB4": {"test_system": "NB4", "experiment": "Cytotoxicity assay (MTT, 72 h) NB4", "details": "read-out: IC50 ± SD NB4"}, "DG-75": {"test_system": "DG-75", "experiment": "Cytotoxicity assay (MTT, 72 h) DG-75"}, "A431": {"test_system": "A431", "experiment": "Cytotoxicity assay (SRB, 72 h) A431", "details": "read-out: IC50 ± SD A431"}, "Capan 1": {"test_system": "Capan 1", "experiment": "Cytotoxicity assay (SRB, 72 h) Capan 1"}, "JECO-1": {"test_system": "JECO-1", "experiment": "Cytotoxicity assay (MTT, 72 h) JECO-1", "details": "72 h, MTT assay; read-out: IC50 ± SD JECO-1"}, "A2780-Dx": {"test_system": "A2780-Dx", "experiment": "Cytotoxicity assay (SRB, 72 h) A2780-Dx"}, "U-2932": {"test_system": "U-2932", "experiment": "Cytotoxicity assay (MTT, 72 h) U-2932", "details": "read-out: IC50 ± SD U-2932"}, "NCI-H460": {"test_system": "NCI-H460", "experiment": "Cytotoxicity assay (SRB, 72 h) NCI-H460", "details": "for IC50: 72 h, SRB assay, read-out: IC50 ± SD NCI-H460"}, "HepG2": {"test_system": "HepG2", "experiment": "Cytotoxicity assay (SRB, 72 h) HepG2", "details": "read-out: IC50 ± SD HepG2"}, "L-428": {"test_system": "L-428", "experiment": "Cytotoxicity assay (MTT, 72 h) L-428", "details": "72 h, MTT assay; read-out: IC50 ± SD L-428", "protocol": "(§1) Human tumor cells were seeded in 96-well cell culture plastic plates, allowed to attach, and exposed to scalar concentrations of the test compounds."}, "A2780": {"test_system": "A2780", "experiment": "Cytotoxicity assay (SRB, 72 h) A2780", "details": "read-out: IC50 ± SD A2780"}, "DU145": {"test_system": "DU145", "experiment": "Cytotoxicity assay (SRB, 72 h) DU145", "details": "read-out: IC50 ± SD DU145"}, "MINO": {"test_system": "MINO", "experiment": "Cytotoxicity assay (MTT, 72 h) MINO", "details": "72 h, MTT assay; read-out: IC50 ± SD MINO"}, "HeLa": {"test_system": "HeLa", "experiment": "Cytotoxicity assay (SRB, 72 h) HeLa", "details": "read-out: IC50 ± SD HeLa"}, "OCI-LY3": {"test_system": "OCI-LY3", "experiment": "Cytotoxicity assay (MTT, 72 h) OCI-LY3", "details": "72 h, MTT assay; read-out: IC50 ± SD OCI-LY3", "protocol": "as §1"}, "MAVER-2": {"test_system": "MAVER-2", "experiment": "Cytotoxicity assay (MTT, 72 h) MAVER-2", "details": "read-out: IC50 ± SD MAVER-2"}, "p53": {"test_system": "p53", "experiment": "Western blot, p53 in NCI-H460 cells", "details": "24 h; SAHA 5 μM, SN38 0.05 μM, 3d 0.125–0.2–0.5 μM", "protocol": "(§2) The supernatant, containing the total proteins extracts, were transferred in new vials. The protein concentration was measured by Bradford Protein Assay. Equal amounts of proteins for each sample were then resolved by SDS-PAGE and loaded on 10–12% polyacrilamide gels. The proteins were then transferred on nitrocellulose membranes. Molecular weights were estimated based upon the relative migration with molecular weight protein markers.\n(§3) The non-specific binding was blocked by incubation of membranes in TBS-tween (25 mM Tris, 150 mM NaCl, 0.1% Tween 20) with 5% nonfat dry milk (BIORAD, Milan) for 60 minutes. Subsequently, the membrane was incubated overnight with primary antibodies: anti-Histone H4 (Millipore, 1:500), anti-acetyl-H4 (Santa Cruz, 1:1000) anti-p21 (Santa Cruz, 1:1000), anti-acetyl-tubulin (abcam, 1:1000), anti-α-tubulin (Sigma, 1:5000), anti β-actin (Sigma, 1:5000) and anti-Topoisomerase 1 (Santa Cruz, 1:500). After three washes with TBST blots were incubated with HRP-coniugated secondary anti-mouse and anti-rabbit (Santa Cruz, 1:5000) 1 hour at room temperature. After three washes with TBST the blots were developed with ECL substrate (GE Healthcare) and chemiluminescence detected by ChemiDoc Imaging System (Biorad). The optical density of the protein bands detected by western blotting was normalized on α -tubulin levels and analyzed by ChemiDoc software (Biorad).\n(§4) Cells were lysed in 0.5% NP-40 and 40 μg of total proteins were loaded on NuPAGE 4–12% (Invitrogen), transferred to a nitrocellulose paper and probed with specific antibodies."}, "p16": {"test_system": "p16", "experiment": "Western blot, p16 in NCI-H460 cells", "details": "24 h; SAHA 5 μM, SN38 0.05 μM, 3d 0.125–0.2–0.5 μM", "protocol": "as §2, §3, §4"}, "H2A.X": {"test_system": "H2A.X", "experiment": "Western blot, H2A.X induction in NCI-H460 cells", "details": "24 h; SAHA 5 μM, SN38 0.05 μM, 3d 0.125–0.2–0.5 μM", "protocol": "as §2, §3, §4"}, "CycD1": {"test_system": "CycD1", "experiment": "Western blot, CycD1 in NCI-H460 cells", "details": "24 h; SAHA 5 μM, SN38 0.05 μM, 3d 0.125–0.2–0.5 μM", "protocol": "as §2, §3, §4"}}, "note": "Where two headings read alike, the source gives them in different places."}
{"smiles": "CCc1c2c(nc3ccc(OCCCCCCC(=O)NO)cc13)-c1cc3c(c(=O)n1C2)COC(=O)[C@]3(O)CC", "note": "[CY700]", "values": [{"measurement": "IC50", "setting": "KM-H2", "value": "1500 ± 500", "unit": "nM"}, {"measurement": "IC50", "setting": "HT29", "value": "1200 ± 200", "unit": "nM"}, {"measurement": "IC50", "setting": "NB4", "value": "240 ± 60", "unit": "nM"}, {"measurement": "IC50", "setting": "DG-75; 72 h, MTT assay, read-out: IC50 ± SD DG-75", "value": "> 10000", "unit": "nM"}, {"measurement": "percentage in parentheses after IC50 >10, DG-75", "setting": "DG-75; meaning not defined in the paper, given beside >10 μM", "value": 18, "unit": "%"}, {"measurement": "IC50", "setting": "A431", "value": "790 ± 100", "unit": "nM"}, {"measurement": "IC50", "setting": "Capan 1; read-out: IC50 ± SD Capan 1", "value": "960 ± 80", "unit": "nM"}, {"measurement": "IC50", "setting": "JECO-1", "value": "1000 ± 400", "unit": "nM"}, {"measurement": "IC50", "setting": "A2780-Dx; 72 h, SRB assay, multidrug-resistant ovarian carcinoma, read-out: IC50 ± SD A2780-Dx", "value": "5900 ± 1000", "unit": "nM"}, {"measurement": "RI (Resistance Index)", "setting": "A2780-Dx; A2780-Dx versus A2780", "value": 2.4}, {"measurement": "IC50", "setting": "U-2932", "value": "900 ± 300", "unit": "nM"}, {"measurement": "IC50", "setting": "NCI-H460", "value": "360 ± 20", "unit": "nM"}, {"measurement": "IC50", "setting": "HepG2", "value": "1500 ± 400", "unit": "nM"}, {"measurement": "IC50", "setting": "L-428", "value": "1700 ± 200", "unit": "nM"}, {"measurement": "IC50", "setting": "A2780", "value": "2500 ± 300", "unit": "nM"}, {"measurement": "IC50", "setting": "DU145", "value": "870 ± 40", "unit": "nM"}, {"measurement": "IC50", "setting": "MINO", "value": "370 ± 100", "unit": "nM"}, {"measurement": "IC50", "setting": "HeLa", "value": "3300 ± 900", "unit": "nM"}, {"measurement": "IC50", "setting": "OCI-LY3", "value": "340 ± 40", "unit": "nM"}, {"measurement": "IC50", "setting": "MAVER-2", "value": "400 ± 80", "unit": "nM"}]}
{"smiles": "CC[C@@]1(O)C(=O)OCc2c1cc1n(c2=O)Cc2c-1nc1ccccc1c2C=NOCC(=O)NO", "note": "[Compound 3a, Camptothecin-7-yl(methyleneaminooxy)-acetic acid hydroxyamide]", "values": [{"measurement": "IC50", "setting": "Capan 1; Homo sapiens, CAPAN-1, read-out: IC50 ± SD Capan 1", "value": "50 ± 6", "unit": "nM"}, {"measurement": "IC50", "setting": "NCI-H460; Homo sapiens, NCI-H460", "value": "360 ± 100", "unit": "nM"}]}
{"smiles": "CCc1c2c(nc3ccc(O)cc13)-c1cc3c(c(=O)n1C2)COC(=O)[C@]3(O)CC", "note": "[SN38]", "values": [{"measurement": "p53 activation", "setting": "p53", "value": "less effective in p53 up-regulation"}, {"measurement": "P16 regulation", "setting": "p16", "value": "didn’t show any effect"}, {"measurement": "H2A.X induction (DNA damage)", "setting": "H2A.X", "value": "completely ineffective in H2A.X induction"}, {"measurement": "IC80", "setting": "NCI-H460; NCI-H460 cells", "value": "~50", "unit": "nM"}, {"measurement": "CycD1 regulation", "setting": "CycD1", "value": "didn’t show any effect"}]}
